Measurements from ChEMBL document CHEMBL1134207, “Synthesis and antiviral activity of novel D- and L-2'-azido-2',3'-dideoxyribofuranosyl-4'-thiopyrimidines and purines” (Bioorg Med Chem Lett, 2001).
≈ marks a conversion by molar mass, not a printed value. Calls of active or inactive are those of the source. The rule behind the calls is not given here.

What was measured:
Assay type in all cases: functional, organism-based
[1] = test system: Human alphaherpesvirus 2; test: Tested for antiviral activity against HSV-2 in CCL 81 cells
[2] = test system: Human alphaherpesvirus 1; test: Tested for antiviral activity against HSV-1 in CCL 81 cells
[3] = test system: Human betaherpesvirus 5; test: Tested for antiviral activity against HCMV in […] cells
[4] = test system: Human immunodeficiency virus 1; test: Tested for antiviral activity against HIV-1 in MT-4 cells; settings: MT4
[5] = test system: Human betaherpesvirus 5; test: Tested for antiviral activity against HCMV in AD169 cell line; settings: Human betaherpesvirus 5, AD169
[6] = test system: Human betaherpesvirus 5; test: Tested for antiviral activity against HCMV in Davis cell line; settings: Human betaherpesvirus 5, Davis

EC50 [5] [µg/mL] | EC50 [6] [µg/mL] | SMILES | Activity [1] | Activity [2] | Activity [3] | Activity [4]
– | – | [N-]=[N+]=N[C@@H]1C[C@@H](CO)S[C@H]1n1cnc2c(Cl)ncnc21 | inactive | inactive | Significant activity | inactive
– | – | [N-]=[N+]=N[C@H]1C[C@H](CO)S[C@@H]1n1cnc2c(O)ncnc21 | inactive | inactive | Significant activity | inactive
– | – | [N-]=[N+]=N[C@H]1C[C@H](COC(=O)c2ccccc2)S[C@H]1n1ccc(=O)n(C(=O)c2ccccc2)c1=O | inactive | inactive | Significant activity | inactive
– | – | [N-]=[N+]=N[C@@H]1C[C@@H](CO)S[C@@H]1n1cnc2c(N)ncnc21 | inactive | inactive | Significant activity | inactive
– | – | [N-]=[N+]=N[C@H]1C[C@H](COC(=O)c2ccccc2)S[C@@H]1n1ccc(=O)n(C(=O)c2ccccc2)c1=O | inactive | inactive | Significant activity | inactive
0.98 (≈ 3.84 µM) | 4.07 (≈ 15.9 µM) | Nc1nc2c(ncn2COC(CO)CO)c(=O)[nH]1 [GANCICLOVIR] | – | – | – | –
19.1 (≈ 62.5 µM) | 25.8 (≈ 84.2 µM) | CNc1ncnc2c1ncn2[C@H]1S[C@H](CO)C[C@H]1N=[N+]=[N-] | – | – | – | –
– | – | CC(C)(C)[Si](OC[C@H]1C[C@H](N=[N+]=[N-])[C@H](n2ccc(NC(=O)c3ccccc3)nc2=O)S1)(c1ccccc1)c1ccccc1 | inactive | inactive | Significant activity | inactive
26.1 (≈ 85.2 µM) | 90.2 (≈ 294 µM) | CNc1ncnc2c1ncn2[C@@H]1S[C@H](CO)C[C@H]1N=[N+]=[N-] | – | – | – | –
– | – | CNc1ncnc2c1ncn2[C@H]1S[C@@H](CO)C[C@@H]1N=[N+]=[N-] | inactive | inactive | Significant activity | inactive
– | – | [N-]=[N+]=N[C@H]1C[C@H](CO)S[C@H]1n1cnc2c(Cl)ncnc21 | inactive | inactive | Significant activity | inactive
– | – | Cc1cn([C@@H]2S[C@@H](CO)C[C@@H]2N=[N+]=[N-])c(=O)[nH]c1=O | inactive | inactive | Significant activity | inactive
– | – | Cc1cn([C@H]2S[C@@H](CO)C[C@@H]2N=[N+]=[N-])c(=O)[nH]c1=O | inactive | inactive | Significant activity | inactive
– | – | CNc1ncnc2c1ncn2[C@@H]1S[C@@H](CO)C[C@@H]1N=[N+]=[N-] | inactive | inactive | Significant activity | inactive
– | – | [N-]=[N+]=N[C@H]1C[C@H](CO)S[C@H]1n1cnc2c(O)ncnc21 | inactive | inactive | Significant activity | inactive
– | – | [N-]=[N+]=N[C@H]1C[C@H](CO)S[C@@H]1n1ccc(=O)[nH]c1=O | inactive | inactive | Significant activity | inactive
– | – | [N-]=[N+]=N[C@H]1C[C@H](CO)S[C@@H]1n1cnc2c(N)ncnc21 | inactive | inactive | Significant activity | inactive
– | – | [N-]=[N+]=N[C@@H]1C[C@@H](CO)S[C@@H]1n1cnc2c(Cl)ncnc21 | inactive | inactive | Significant activity | inactive
– | – | [N-]=[N+]=N[C@H]1C[C@H](CO)S[C@@H]1n1ccc(N)nc1=O | inactive | inactive | Significant activity | inactive
– | – | [N-]=[N+]=N[C@H]1C[C@H](CO)S[C@H]1n1cnc2c(N)ncnc21 | inactive | inactive | Significant activity | inactive
– | – | CC(=O)OC1S[C@@H](CO[Si](c2ccccc2)(c2ccccc2)C(C)(C)C)C[C@@H]1N=[N+]=[N-] (stereo partly drawn) | inactive | inactive | inactive | inactive
– | – | [N-]=[N+]=N[C@H]1C[C@H](CO)S[C@H]1n1ccc(=O)[nH]c1=O | inactive | inactive | Significant activity | inactive
– | – | [N-]=[N+]=N[C@@H]1C[C@@H](CO)S[C@H]1n1cnc2c(N)ncnc21 | inactive | inactive | Significant activity | inactive
– | – | [N-]=[N+]=N[C@H]1C[C@H](CO)S[C@@H]1n1cnc2c(Cl)ncnc21 | inactive | inactive | Significant activity | inactive
– | – | [N-]=[N+]=N[C@H]1C[C@H](CO)S[C@H]1n1ccc(N)nc1=O | inactive | inactive | Significant activity | inactive
– | – | CC(C)(C)[Si](OC[C@H]1C[C@H](N=[N+]=[N-])[C@@H](n2ccc(NC(=O)c3ccccc3)nc2=O)S1)(c1ccccc1)c1ccccc1 | inactive | inactive | Significant activity | inactive
